Assay results: PMC4278708, “A Convenient Method for the Synthesis of (Prop-2-Ynyloxy)Benzene Derivatives via Reaction with Propargyl Bromide, Their Optimization, Scope and Biological Evaluation” (PLoS ONE, 2014)
In brackets after ≈: the same amount, converted by molar mass. Where two headings read alike, the source gives them in different places.

What was measured:
urease enzyme = urease enzyme (Canavalia ensiformis, UniProt P07374); assay: biochemical; assay type: biochemical; settings: for inhibition at 50 µg/mL: read-out: Percentage inhibition at 50 ug/mL; for inhibition at 100 µg/mL: read-out: Percentage inhibition at 100 ug/mL
Chain of urease enzyme (P07374 whole entry, looked up): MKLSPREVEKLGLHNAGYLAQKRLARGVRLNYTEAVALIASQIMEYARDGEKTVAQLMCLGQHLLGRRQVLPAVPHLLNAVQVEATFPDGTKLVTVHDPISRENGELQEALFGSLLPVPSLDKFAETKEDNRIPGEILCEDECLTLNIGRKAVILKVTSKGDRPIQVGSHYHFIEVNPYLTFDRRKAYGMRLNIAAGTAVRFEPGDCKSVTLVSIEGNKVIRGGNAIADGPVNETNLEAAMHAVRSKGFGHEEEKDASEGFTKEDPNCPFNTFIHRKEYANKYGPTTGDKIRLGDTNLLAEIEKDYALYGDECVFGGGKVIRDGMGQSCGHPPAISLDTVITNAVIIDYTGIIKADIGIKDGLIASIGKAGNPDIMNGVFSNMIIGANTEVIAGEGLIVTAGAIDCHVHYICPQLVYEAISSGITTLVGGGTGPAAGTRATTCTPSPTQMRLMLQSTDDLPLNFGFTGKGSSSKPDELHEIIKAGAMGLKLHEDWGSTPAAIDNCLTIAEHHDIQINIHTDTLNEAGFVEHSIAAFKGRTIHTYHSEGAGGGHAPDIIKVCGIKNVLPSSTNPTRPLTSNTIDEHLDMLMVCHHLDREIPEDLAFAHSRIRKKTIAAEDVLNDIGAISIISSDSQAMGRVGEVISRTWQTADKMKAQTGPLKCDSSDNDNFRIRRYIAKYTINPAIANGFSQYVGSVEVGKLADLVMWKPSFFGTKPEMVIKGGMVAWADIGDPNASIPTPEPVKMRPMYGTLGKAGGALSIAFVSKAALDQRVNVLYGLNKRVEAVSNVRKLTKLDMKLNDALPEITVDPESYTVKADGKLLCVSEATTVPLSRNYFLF
Procedure: Antiurease activity of the synthesized compounds was determined by using the modified phenol-hypochlorite method. Varying concentrations were used to prepare the urease inhibition curve of Thiourea (a known inhibitor of Urease) in the reaction mixture. Phosphate buffer solution of pH 7 containing 1 unit of enzyme was added about 200 µl in the test tube which was followed by the addition of 230 µl of phosphate buffer and 20 µl of thiourea from a scrupulous stock solution for the particular concentration of thiourea in the reaction mixture respectively. Test sample solutions were added instead of thiourea solution in case of test samples. The reaction mixture were mixed and incubated at 25°C for 5 min. 400 µl of urea stock (20 mM) was added in each test tube. In order to allow the action of urease on urea, all the test tubes were incubated at 40°C.
Phenol hypochlorite reagent (1150 µl) was added after 10 min incubation at 40°C. Test tubes were again incubated at 56°C for 25 min. A blue coloured complex was formed in the reaction mixture. The samples were allowed to cool for 5 min and then their absorbance values were measured at 625 nm and the %age inhibition was calculated. Experiment was repeated three times to get the SD values.

Bacillus subtillus = assay: Antibacterial activity, disc diffusion method; assay type: cell-based; settings: for inhibition at 50 µg/mL / IC50 / inhibition at 100 µg/mL: Bacillus; for inhibition at 50 µg/mL: read-out: Bacillus subtillus 50 ug/ml (percentage inhibition); for inhibition at 100 µg/mL: read-out: Bacillus subtillus 100 ug/ml (percentage inhibition)
From the text: (§1) Disc diffusion method was adopted to test the antibacterial activity of synthesized compounds 2a-10 against […] different bacterial strains. Ampiciline was used as positive control to check antibacterial activity of synthesized compounds. The bacterial strains employed were: Escherichia coli, Bacillus subtillus, Shigella flexneri, Staphylococcus aureus, Pseudomonas aeroginosa and Salmonella typhi.
(§2) Disc diffusion method was used for the determination of antibacterial activity. synthetic organic compounds were examined to evaluate their antibacterial potential against four different strains of bacteria i.e. Staphlococcus aureus (Gram + ive), Pseudomonas- aeroginosa (Gram−ive) and Escherichia coli (Gram−ive), Bacillus subtilis (Gram + ive), Salmonella typhi (Gram−ive) and Shigella flexneri (−ive). The synthetic organic compounds were dissolved in an appropriate solvent to get the solution of known concentration (5 µg/µl or 10 µg/µl). In order to prepare discs of different potencies known volume of extract/synthetic organic compound solution was applied on the discs, air dried and used. After preparation of the sterilized nutrient agar and nutrient broth medium, the sterilized nutrient agar medium was poured under aseptic conditions into sterile glass petri dishes/plates. A known volume of bacterial growth culture can also be poured on the surface of agar medium solidified in petri dishes. After inoculation petri plates were kept at room temperature for 15–30 minutes so that the poured medium is adsorbed. All the discs, including test sample, +ive and –ve controls were placed onto the inoculated nutrient agar medium solidified in petri dishes with the help of sterile forceps and incubated the petri plates at 37°C±2°C for 16–24 hours. Zone of inhibition was measured in mm using ordinary scale. Experiment was repeated three times to get the SD values.

Staphylococcus aureus = assay: Antibacterial activity, disc diffusion method; assay type: cell-based; settings: for inhibition at 40 µg/mL / inhibition at 100 µg/mL / IC50: Staphylococcus aureus; for inhibition at 40 µg/mL: read-out: Staphylococcus aureus 40 ug/ml (percentage inhibition); for inhibition at 100 µg/mL: read-out: Staphylococcus aureus 100 ug/ml (percentage inhibition)
From the text: as §1, §2

[1] = Nitric oxide (NO) scavenging activity (sodium nitropruside / Griess reagent); settings: for IC50: NO scavenging; for Percentage scavenging activity at 50 ug/ml / Percentage scavenging activity at 100 ug/ml: NO
Procedure: Solutions of known concentration were prepared by dissolving the synthesized compounds in appropriate solvents. A mixture of sample solution (20 µl), 10 mM sodium nitropruside solution (200 µl) and phosphate buffer of 7.4 pH (1780 µl) was taken in a dry test tube and the mixture was incubated at 37°C for 2 hours. 200 µl Griess reagent (0.3% Sulphanilic acid in glacial acetic acid, 0.1% Naphthyl ethylene diamine HCL (NED): Mixed equal volume of both solutions just before use) was added after the incubation period is over. After 20 min keeping the solution at room temperature, its absorbance at 528 nm was measured. Each sample was analyzed in triplicate. Positive control of any known antioxidant and control of all samples were run in parallel. Use of negative control was to calibrate the instrument. Sample blanks were also prepared in case if the samples were coloured. Correction in the absorbance values was made by subtracting the sample blank reading from the sample reading.

[2] = read-out: Staphylococcus aureus IC50 ug/ml
[3] = read-out: Bacillus subtillus IC50 ug/ml

Compound | IC50 [1] | Percentage scavenging activity at 50 ug/ml [1] | Percentage scavenging activity at 100 ug/ml [1] | inhibition at 50 µg/mL (Bacillus subtillus; 50 ug/ml) | inhibition at 40 µg/mL (Staphylococcus aureus) | inhibition at 100 µg/mL (Staphylococcus aureus) | IC50 (urease enzyme) | inhibition at 50 µg/mL (urease enzyme) | inhibition at 100 µg/mL (urease enzyme) | activity against Bacillus subtillus (in words) (Bacillus subtillus) | IC50 (Staphylococcus aureus; [2]) | also measured
2-bromo-4-methyl-N-(prop-2-ynyl)aniline [Compound 8b] | 87.5 mg/L | 26.33±0.11% | 57.98±0.21% | – | – | – | – | – | – | – | – | IC50 (urease enzyme; urease): 98.2 mg/L; Percentage inhibition at 50 ug/mL (urease enzyme; urease): 27±0.45%; Percentage inhibition at 100 ug/mL (urease enzyme; urease): 50.83±0.265%; Bacillus subtillus 100 ug/ml (percentage inhibition) (Bacillus subtillus; 100 ug/ml): 43.8±0.35%; Staphylococcus aureus 40 ug/ml (percentage inhibition) (Staphylococcus aureus): 13.39±0.5%; Staphylococcus aureus 100 ug/ml (percentage inhibition) (Staphylococcus aureus): 36±0.8%
CC1(C)S[C@@H]2[C@H](NC(=O)[C@H](N)c3ccccc3)C(=O)N2[C@H]1C(=O)O [Ampicilline, reference compound] | – | – | – | 9.9 ± 0.51% | 29.9 ± 0.59% | 73 ± 0.51% | – | – | – | – | – | IC50 (Bacillus subtillus; read-out: Bacillus subtillus IC50): 81 µg/mL (≈ 232 µM); IC50 (Staphylococcus aureus; read-out: Staphylococcus aureus IC50): 76 µg/mL (≈ 218 µM)
C#CCOc1ccc(Br)cc1Cl [Compound 2a, 4-bromo-2-chloro-1-(prop-2-ynyloxy)benzene] | 67.72 mg/L (≈ 276 µM) | 35.67±0.09% | 76.09±0.12% | 42.4 ± 0.35% | 29.13 ± 0.12% | 51 ± 0.5% | 245 µM | 42.5 ± 0.7% | 82 ± 0.09% | inactive | 97.7 µg/mL (≈ 398 µM) | melting point: 29 °C
C#CCOc1ccc(Cl)cc1Br [Compound 2b, 2-bromo-4-chloro-1-(prop-2-ynyloxy)benzene] | 67.9 mg/L (≈ 277 µM) | 39.67±0.09% | 68.44±0.16% | 40.37 ± 0.35% | 31.47 ± 0.19% | 56 ± 0.07% | 264 µM | 31.5 ± 0.22% | 81.07 ± 0.1% | inactive | 87.7 µg/mL (≈ 357 µM) | inhibition at 100 µg/mL (Bacillus subtillus; 100 ug/ml): 39.3 ± 0.36%
C#CCOc1ccc(Br)cc1Br [Compound 2c, 2,4-dibromo-1-(prop-2-ynyloxy)benzene] | 63.8 mg/L (≈ 220 µM) | 39.67±0.09% | 77.03±0.11% | – | 31.47 ± 0.2% | 56 ± 0.1% | 242 µM | 36 ± 0.5% | 86.45 ± 0.07% | batter activity | 87.7 µg/mL (≈ 302 µM) | melting point: 157.95 °C; inhibition at 100 µg/mL (Bacillus subtillus; 100 ug/ml): 55.01 ± 0.25%; IC50 (Bacillus subtillus; [3]): 83.8 µg/mL (≈ 289 µM)
C#CCOc1ccc(C)cc1Br [Compound 2d, 2-bromo-4-methyl-1-(prop-2-ynyloxy)benzene] | 74.1 mg/L (≈ 329 µM) | 31.33±0.10% | 69.95±0.15% | 41.5 ± 0.3% | 27.7 ± 0.35% | 52 ± 0.607% | 298 µM | 30.3 ± 0.6% | 85.89 ± 0.07% | potent antibacterial | 95.9 µg/mL (≈ 426 µM) | IC50 (Bacillus subtillus; [3]): 79.9 µg/mL (≈ 355 µM)
C#CCOc1ccc(F)cc1Br [Compound 2e, 2-bromo-4-fluoro-1-(prop-2-ynyloxy)benzene] | 68.8 mg/L (≈ 300 µM) | 33.33±0.1% | 77.5±0.11% | – | 31.99 ± 0.07% | 58 ± 0.9% | 271 µM | 40 ± 0.5% | 79.59 ± 0.11% | inactive | 85.1 µg/mL (≈ 372 µM) | –
C#CCOc1ccc(C(C)(C)c2ccc(OCC#C)cc2)cc1 [Compound 4a, 4,4′-(propane-2,2-diyl)bis((prop-2-ynyloxy)benzene)] | 64.4 mg/L (≈ 212 µM) | 40±0.09% | 74.53±0.13% | – | 29.1 ± 0.6% | 50 ± 0.2% | 205 µM | 37 ± 0.34% | 89.42 ± 0.05% | inactive | 97.7 µg/mL (≈ 321 µM) | inhibition at 100 µg/mL (Bacillus subtillus; 100 ug/ml): 33.9 ± 0.45%; activity against Staphylococcus aureus (in words) (Staphylococcus aureus): moderate activity
C#CCOc1cccc2ccccc12 [Compound 6a, 1-(prop-2-ynyloxy)naphthalene] | 83 mg/L (≈ 455 µM) | 24.33±0.12% | 63.17±0.19% | – | -1.85% | 10 ± 0.9% | 373 µM | 41.33 ± 0.41% | 65.3 ± 0.18% | – | – | IC50 (Bacillus subtillus; [3]): 92.6 µg/mL (≈ 508 µM); activity against Staphylococcus aureus (in words) (Staphylococcus aureus): inactive
C#CCOc1ccc2ccccc2c1 [Compound 6b, 2-(prop-2-ynyloxy)naphthalene] | 76.16 mg/L (≈ 418 µM) | 33.33±0.1% | 65.19±0.18% | 39.06 ± 0.05% | 21.4 ± 0.4% | 51 ± 0.3% | – | 32 ± 0.38% | 41.9 ± 0.313% | – | 98.3 µg/mL (≈ 539 µM) | urease inhibition activity (in words) (urease enzyme; 50 and 100 µg/ml tested): did not show any satisfactory results; inhibition at 100 µg/mL (Bacillus subtillus; 100 ug/ml): 57.8 ± 0.26%; IC50 (Bacillus subtillus; [3]): 79.2 µg/mL (≈ 435 µM)
C#CCNc1cccc2ccccc12 [Compound 8d, N-(prop-2-ynyl)naphthalen-1-amine] | – | 7.67±0.13% | 38.38±0.32% | – | 5.85 ± 0.8% | 31 ± 0.2% | 506 µM | 43 ± 0.42% | 51.5 ± 0.26% | – | – | nitric oxide scavenging activity (in words) [1]: did not show any significant results
NC(N)=S [Thiourea, reference compound] | – | – | – | – | – | – | – | – | – | – | – | IC50 (urease enzyme; urease): 23.3 mg/L; Percentage inhibition at 20 ug/ml (urease enzyme; urease, 20 ug/ml (positive control)): 47.1±0.31%; Percentage inhibition at 40 ug/ml (urease enzyme; urease, 40 ug/ml (positive control)): 65±0.01%
O=C1O[C@H]([C@@H](O)CO)C(O)=C1O [Vit.C control, Ascorbic acid, reference compound] | 50.43 mg/L (≈ 286 µM) | 38.5±0.16% | 84.1±0.12% | – | – | – | – | – | – | – | – | –
N-(prop-2-ynyl)-4-(prop-2-ynyloxy)aniline [Compound 10] | 78.1 mg/L | 30±0.10% | 65.5±0.18% | – | – | – | – | – | – | batter activity | – | IC50 (urease enzyme; urease): 89.6 mg/L; Percentage inhibition at 50 ug/mL (urease enzyme; urease): 25±0.45%; Percentage inhibition at 100 ug/mL (urease enzyme; urease): 56.5±0.234%; Bacillus subtillus IC50 (Bacillus subtillus): 98.5 mg/L; Bacillus subtillus 50 ug/ml (percentage inhibition) (Bacillus subtillus; 50 ug/ml): 6.13±0.35%; Staphylococcus aureus IC50 (Staphylococcus aureus): 96.3 mg/L; activity against Staphylococcus aureus (in words) (Staphylococcus aureus): moderate activity; Staphylococcus aureus 40 ug/ml (percentage inhibition) (Staphylococcus aureus): 24.4±0.11%; Staphylococcus aureus 100 ug/ml (percentage inhibition) (Staphylococcus aureus): 52±0.1%
